System: neovascularization
Experiment: Placement of the drug delivery systems into the vitreous of an eye: duration of therapeutic benefit
Assay type: in vivo
Conditions: drug delivery system placed into the vitreous of an eye
From the text: (§1) Drug delivery systems which comprise about 86.1 milligrams of Cand5 can be produced similar to those systems described in Examples 1. Such drug delivery systems release Cand5 at a rate from about 49.7 micrograms per day to about 4970 micrograms per day. The release rates can be measured using in vitro and/or in vivo assays as described above. […] Improvements in patient function, such as vision and intraocular pressure, can be observed at longer time periods.
as §1, with “siRNA Z” for “Cand5”, “1, above.” for “1.”

Cand5: siRNA from Acuity Pharmaceuticals/Avecia that silences genes producing VEGF; sense SEQ ID NO: 3, antisense SEQ ID NO: 4 (sense ACCUCACCAAGGCCAGCAC; antisense GUGCUGGCCUUGGUGAGGU; listed as RNA, chemistry not fully specified; listed as Homo Sapiens)
duration of therapeutic benefits, such as the treatment of neovascularization, after a single administration: at least about thirty days
